Activity calls are given as the source filed them. The rule behind the calls is not given here.
What was measured:
HCT-8 = assay: Cytotoxicity against human HCT-8 cells assessed as reduction in cell number upto 50 uM incubated for 48 hrs by; type: toxicity, cell-based; settings: hct-8, 48 h
hERG (KCNH2) [1] = target: T1, hERG (KCNH2) (Homo sapiens, UniProt Q12809); assay: Inhibition of human ERG expressed in CHO cells at 10 uM by automated patch clamp assay relative to control; type: cell-based; settings: CHO cells that express hERG
hERG (KCNH2) [2] = target: T1, hERG (KCNH2); assay: Inhibition of human ERG expressed in CHO cells at 1 uM by automated patch clamp assay relative to control; type: cell-based; settings: CHO cells that express hERG
Cryptosporidium parvum [3] = assay: Antiparasitic activity against Cryptosporidium parvum infected in mouse assessed as relapse in parasite growth at 5 mg/kg, po pre-infected with parasite for 7 days followed by compound addition twice daily for 4 days; type: functional, organism-based; settings: time 4.0 day
[4] = Tmax in mouse plasma at 5 mg/kg, po measured upto 24 hrs by LC-MS/MS analysis; type: ADME, organism-based; settings: in vivo
[5] = Metabolic stability in mouse intestinal S9 fraction assessed as half life measured upto 60 mins; type: ADME, subcellular, Intestine; settings: s9, 1 h
[6] = Metabolic stability in mouse liver microsomes assessed as half life measured upto 60 mins; type: ADME, Microsome; settings: 1 h
Cryptosporidium parvum [7] = assay: Antiparasitic activity against Cryptosporidium parvum infected in mouse assessed as relapse in parasite growth at >=5 mg/kg, po pre-infected with parasite for 7 days followed by compound addition twice daily for 4 days; type: functional, organism-based; settings: time 4.0 day
[8] = target: Voltage-gated inwardly rectifying potassium channel KCNH2 (Homo sapiens, UniProt Q12809); assay: Displacement of [3H]Dofetilide from human ERG at 30 uM by automated patch clamp assay relative to control; settings: 30 µM
[9] = Metabolic stability in mouse liver microsomes assessed as intrinsic clearance measured upto 60 mins; type: ADME, Microsome; settings: read-out: CLH
Cryptosporidium parvum [10] = assay: Antiparasitic activity against Cryptosporidium parvum infected in mouse assessed as reduction in parasitic growth at >= 5 mg/kg, po pre-infected with parasite for 7 days followed by compound addition twice daily for 4 days; type: functional; set-up: scale not given: the % may be the effect or the level left; settings: time 4 day
[11] = AUC in mouse Jejunum at 5 mg/kg, po measured upto 24 hrs by LC-MS/MS analysis; type: ADME, organism-based; set-up: dose 5 mg/kg, time < 24 hrs, route po; settings: in vivo
[12] = AUC in mouse plasma at 5 mg/kg, po measured upto 24 hrs by LC-MS/MS analysis; type: ADME, organism-based; set-up: dose 5 mg/kg, time < 24 hrs, route po; settings: in vivo
Cryptosporidium parvum [13] = assay: Antiparasitic activity against Cryptosporidium parvum infected in human HCT-8 cells assessed as parasitic growth inhibition incubated for 48 hrs by fluorescence microscopic analysis; type: functional, organism-based; settings: HCT-8, 48 h
[14] = Cmax in mouse plasma at 5 mg/kg, po measured upto 24 hrs by LC-MS/MS analysis; type: ADME, organism-based; set-up: time < 24 hrs, dose 5 mg/kg, route po; settings: in vivo
[15] = Cmax in mouse Jejunum at 5 mg/kg, po measured upto 24 hrs by LC-MS/MS analysis; type: ADME, organism-based; set-up: dose 5 mg/kg, time < 24 hrs, route po; settings: in vivo
[16] = Metabolic stability in mouse intestinal S9 fraction assessed as intrinsic clearance measured upto 60 mins; type: ADME, subcellular, Intestine; settings: read-out: CLH
hERG (KCNH2) [17] = target: T1, hERG (KCNH2); assay: Inhibition of human ERG expressed in CHO cells at 30 uM by automated patch clamp assay relative to control; type: cell-based; settings: CHO cells that express hERG
[18] = Tmax in mouse Jejunum at 5 mg/kg, po measured upto 24 hrs by LC-MS/MS analysis; type: ADME, organism-based; settings: in vivo
[19] = Plasma protein binding in mouse at 1 uM incubated for 30 mins by LC-MS/MS analysis; type: ADME, cell-free; settings: 0.5 h

T1 sequence (Q12809 whole entry): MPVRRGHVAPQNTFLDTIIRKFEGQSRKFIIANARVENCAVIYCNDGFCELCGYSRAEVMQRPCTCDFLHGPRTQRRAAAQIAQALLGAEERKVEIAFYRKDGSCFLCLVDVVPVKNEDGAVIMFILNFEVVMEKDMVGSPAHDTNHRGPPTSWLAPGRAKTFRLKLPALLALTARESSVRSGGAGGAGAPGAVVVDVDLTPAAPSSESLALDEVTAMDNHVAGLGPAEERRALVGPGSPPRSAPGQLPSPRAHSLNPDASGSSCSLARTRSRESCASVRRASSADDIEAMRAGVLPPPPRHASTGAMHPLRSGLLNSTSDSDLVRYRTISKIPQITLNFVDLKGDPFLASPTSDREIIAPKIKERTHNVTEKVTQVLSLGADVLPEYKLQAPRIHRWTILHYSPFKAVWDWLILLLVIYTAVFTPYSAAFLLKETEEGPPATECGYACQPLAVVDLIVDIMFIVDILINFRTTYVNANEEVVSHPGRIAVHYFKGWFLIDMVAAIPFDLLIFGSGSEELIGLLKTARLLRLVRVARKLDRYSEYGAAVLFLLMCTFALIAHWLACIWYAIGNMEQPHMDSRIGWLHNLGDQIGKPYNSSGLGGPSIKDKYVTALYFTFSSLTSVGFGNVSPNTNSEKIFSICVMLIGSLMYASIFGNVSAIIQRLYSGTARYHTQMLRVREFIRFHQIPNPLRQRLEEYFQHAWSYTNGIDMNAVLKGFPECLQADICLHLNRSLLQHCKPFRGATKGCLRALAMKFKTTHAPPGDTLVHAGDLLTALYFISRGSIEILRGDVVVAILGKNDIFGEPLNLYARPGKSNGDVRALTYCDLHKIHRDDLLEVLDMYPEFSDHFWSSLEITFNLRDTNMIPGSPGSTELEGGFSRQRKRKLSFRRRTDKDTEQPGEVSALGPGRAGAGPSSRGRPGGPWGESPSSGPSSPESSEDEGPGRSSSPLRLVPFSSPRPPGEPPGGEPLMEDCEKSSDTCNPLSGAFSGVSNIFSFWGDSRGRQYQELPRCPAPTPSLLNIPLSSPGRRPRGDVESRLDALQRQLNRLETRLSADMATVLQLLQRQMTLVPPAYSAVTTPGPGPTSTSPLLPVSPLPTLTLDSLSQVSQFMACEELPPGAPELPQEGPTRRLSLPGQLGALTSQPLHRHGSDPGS
Chain of Voltage-gated inwardly rectifying potassium channel KCNH2 (Q12809 whole entry): as above

Tmax [4]: 1 h
t1/2 [5]: > 2 h
t1/2 [6]: > 2 h
microsomal CLint [9]: < 57.8 µL/min/mg
AUC [11]: 2998 ng·h/g
AUC [12]: 3300 ng·h/mL
Cmax [14]: 568 ng/mL
Cmax [15]: 299 ng/g
microsomal CLint [16]: < 5.8 µL/min/mg
Tmax [18]: 2 h
PPB [19]: 51.8%
Compound: O=C(Cc1ccc(F)c(C(F)(F)F)c1)N1CCN(c2ccc3nncn3n2)CC1
Activity (HCT-8): Non-Toxic
inhibition at 10 µM (hERG (KCNH2) [1]): 58%
inhibition at 1 µM (hERG (KCNH2) [2]): 15%
Activity (Cryptosporidium parvum [3]): inactive
Activity (Cryptosporidium parvum [7]): Active
Activity [8]: 43%
Activity (Cryptosporidium parvum [10]): >99%
EC50 (Cryptosporidium parvum [13]): 70 nM
inhibition at 30 µM (hERG (KCNH2) [17]): 84%

Reference: ChEMBL document CHEMBL5338813 (J Med Chem, 2023)
